Test results taken from patent EP2257297B1, “COMPOUNDS FOR USE IN THE TREATMENT OF ACNE, SEBORRHOEA AND SEBHORROEIC DERMATITIS, OR FOR REDUCING SEBUM SECRETION” (priority 2008, dated 2009).

Each compound was assayed against T1, human MC5R (Homo sapiens, UniProt P33032) (assay: Human MC5R radioligand binding assay ([125I] NDP-MSH displacement, hMC5R membranes)). Conditions: not given.
T1 construct: purchased Perkin Elmer RBXMC5M400UA
T1 sequence (P33032 whole entry): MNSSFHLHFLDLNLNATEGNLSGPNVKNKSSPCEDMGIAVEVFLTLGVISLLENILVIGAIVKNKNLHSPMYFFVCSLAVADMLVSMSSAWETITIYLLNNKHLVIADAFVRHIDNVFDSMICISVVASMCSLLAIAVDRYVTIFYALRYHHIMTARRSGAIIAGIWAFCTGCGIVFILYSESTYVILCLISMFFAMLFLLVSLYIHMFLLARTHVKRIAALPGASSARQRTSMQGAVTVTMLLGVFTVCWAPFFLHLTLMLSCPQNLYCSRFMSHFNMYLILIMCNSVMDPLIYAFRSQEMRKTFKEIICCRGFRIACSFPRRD
Method: After incubation for 10 mins the phosphate buffer containing the iodine was added to NDP-MSH (10 ul at 1 mg/mL) in a separate eppendorf tube. This was incubated for a further 10 mins.
Resuspended membranes were kept on ice until they were added to the wells of the plate.
Assays were performed in 96 well polypropylene plates. […] This was incubated for 1 hr at 37 °C. Non-specific binding was determined with […] NDP-MSH. Plates were filtered using a Tomtec cell harvester with GF/A filters (Wallac) (presoaked in 0.6% polyethylenimine) and washed three times with 1.0 mL ice-cold wash buffer (the above incubation buffer without 1,10-phenanthroline and Complete™ protease inhibitor tablet). The filters were dried in a 37 °C oven, placed in a sample bag and 5 mL Betaplatescint (Wallac) was added. Prepared filters were counted in cassettes in a Microbeta Trilux (Wallac) for 1 min. […] Data analysis was performed using GraphPad Prism 4, employing competition binding with a single site model and a fixed Hill coefficient. The following equation was used: Y = Bottom + (Top-Bottom)/1/10^(X-logEC50), where X = log(concentration) and Y = binding to fit the data.
Compound `CC[C@@H](CN1CC[C@@H](CNC(=O)c2ccc(Cl)c(Cl)c2)N[C@@H](CCN)C1=O)C(C)C` (racemic) [Compound 489, N-(((3S,5S)-3-(2-aminoethyl)-1-((R)-2-ethyl-3-methylbutyl)-2-oxo-1,4-diazepan-5-yl)methyl)-3,4-dichlorobenzamide] has an IC50 of under 10000 nM.
`CC[C@H](CN1CC[C@@H](CNC(=O)c2ccc(Cl)c(Cl)c2)N[C@@H](CCN)C1=O)C(C)C` (racemic) [Compound 490, N-(((3S,5S)-3-(2-aminoethyl)-1-((S)-2-ethyl-3-methylbutyl)-2-oxo-1,4-diazepan-5-yl)methyl)-3,4-dichlorobenzamide] was tested, and the IC50 was under 10000 nM.
For `CC[C@H](CN1CC[C@@H](CNC(=O)c2ccc3cc(Cl)ccc3c2)N[C@@H](CC(C)(C)N2CCCCC2)C1=O)c1ccccc1` (racemic) [Compound 499, 6-chloro-N-(((3S,5S)-3-(2-methyl-2-(piperidin-1-yl)propyl)-2-oxo-1-((S)-2-phenylbutyl)-1,4-diazepan-5-yl)methyl)-2-naphthamide], the IC50 was under 100 nM.
With `CC[C@H](CN1CC[C@H](CNC(=O)c2ccc3cc(Cl)ccc3c2)N[C@H](CC(C)(C)N2CCCCC2)C1=O)c1ccccc1` (racemic) [Compound 500, 6-chloro-N-(((3R,5R)-3-(2-methyl-2-(piperidin-1-yl)propyl)-2-oxo-1-((S)-2-phenylbutyl)-1,4-diazepan-5-yl)methyl)-2-naphthamide] the IC50 was under 100 nM.
`CCC(CN1CCC(CNC(=O)c2ccc3cc(Cl)ccc3c2)N[C@@H](C2CCN(C(C)C)CC2)C1=O)c1ccccc1` (mixture of isomers) [Compound 564, (S)-6-chloro-N-((3-(1-isopropylpiperidin-4-yl)-2-oxo-1-(2-phenylbutyl)-1,4-diazepan-5-yl)methyl)-2-naphthamide] gave an IC50 of under 100 nM.

Same assay, conditions: hMC5R assay as in Example 102; compounds tested as trifluoroacetate or hydrochloride salts, or as free base
`CCC(CN1CC[C@@H](CNC(=O)c2ccc3ccccc3c2)N[C@@H](CCN)C1=O)c1ccccc1` (mixture of isomers) [Compound 37, (3S,5S)-3-(2-aminoethyl)-5-(N-2-naphthamidomethyl)-1-(2-phenylbutyl)-1,4-diazepan-2-one] was tested, and the IC50 was under 100 nM.
`CCN(CC)CC[C@@H]1N[C@H](CNC(=O)c2ccc3cc(F)ccc3c2)CCN(CC(c2ccccc2)c2ccccc2)C1=O` [Compound 25, N-(((3S,5S)-3-(2-(diethylamino)ethyl)-1-(2,2-diphenylethyl)-2-oxo-1,4-diazepan-5-yl)methyl)-6-fluoro-2-naphthamide] was tested, and the IC50 was under 100 nM.
In the case of `NCC[C@@H]1N[C@H](CNC(=O)c2ccc3cc(F)ccc3c2)CCN(CC(c2ccccc2)c2ccccc2)C1=O` [Compound 31, N-(((3S,5S)-3-(2-aminoethyl)-1-(2,2-diphenylethyl)-2-oxo-1,4-diazepan-5-yl)methyl)-6-fluoro-2-naphthamide], the IC50 is reported as under 1000 nM.
`NCC[C@@H]1N[C@H](CNC(=O)c2ccc3ccccc3c2)CCN(Cc2cc(Cl)cc(Cl)c2)C1=O` [Compound 49, (3S,5S)-3-(2-aminoethyl)-5-(2-naphthoylaminomethyl)-1-(3,5-dichlorobenzyl)-1,4-diazepan-2-one] was tested, and the IC50 was under 1000 nM.
For `N=C(N)NCCC[C@@H]1N[C@H](CNS(=O)(=O)c2ccc3ccccc3c2)CCN(CC(c2ccccc2)c2ccccc2)C1=O` [Compound 50, N-(((3S,5S)-1-(2,2-diphenylethyl)-3-(3-guanidinopropyl)-2-oxo-1,4-diazepan-5-yl)methyl)-2-naphthalene-2-sulfonamide], the IC50 was under 10000 nM.
With `CCC(CC)CN1CC[C@@H](CNC(=O)c2ccc3ccccc3c2)N[C@@H](CCN)C1=O` [Compound 54, N-(((3S,5S)-3-(2-aminoethyl)-1-(2-ethylbutyl)-2-oxo-1,4-diazepan-5-yl)methyl)-2-naphthamide] the IC50 was under 1000 nM.
Work on `CN(C[C@@H]1CCN(CC(c2ccccc2)c2ccccc2)C(=O)[C@H](CCCN)N1)C(=O)c1ccc2cc(Br)ccc2c1` [Compound 60, N-(((3S,5S)-3-(3-aminopropyl)-1-(2,2-diphenylethyl)-2-oxo-1,4-diazepan-5-yl)methyl)-6-bromo-N-methyl-2-naphthamide] yielded an IC50 of under 10000 nM.
For `CN1[C@H](CNC(=O)c2ccc3cc(Br)ccc3c2)CCN(CC(c2ccccc2)c2ccccc2)C(=O)[C@@H]1CCCN` [Compound 62, N-(((3S,5S)-3-(3-aminopropyl)-1-(2,2-diphenylethyl)-4-methyl-2-oxo-1,4-diazepan-5-yl)methyl)-6-bromo-2-naphthamide], the IC50 was under 1000 nM.
With `NCCC[C@@H]1N[C@H](CNC(=O)c2ccc3ccccc3c2)CCN(CC(c2ccccc2)c2ccccc2)C1=O` [Compound 63, N-(((3S,5S)-3-(3-aminopropyl)-1-(2,2-diphenylethyl)-2-oxo-1,4-diazepan-5-yl)methyl)-2-naphthamide] the IC50 was under 1000 nM.
For `CC(C)NCCC[C@@H]1N[C@H](CNC(=O)c2ccc3ccccc3c2)CCN(CC(c2ccccc2)c2ccccc2)C1=O` [Compound 65, N-(((3S,5S)-1-(2,2-diphenylethyl)-3-(3-(isopropylamino)propyl)-2-oxo-1,4-diazepan-5-yl)methyl)-2-naphthamide], the IC50 was under 100 nM.
With `CNC(=N)NCCC[C@@H]1N[C@H](CNC(=O)c2ccc3ccccc3c2)CCN(CC(c2ccccc2)c2ccccc2)C1=O` [Compound 67, N-(((3S,5S)-1-(2,2-diphenylethyl)-3-(3-(3-methylguanidino)propyl)-2-oxo-1,4-diazepan-5-yl)methyl)-2-naphthamide] the IC50 was under 10 nM.
For `CNCCC[C@@H]1N[C@H](CNC(=O)c2ccc3ccccc3c2)CCN(CC(c2ccccc2)c2ccccc2)C1=O` [Compound 71, N-(((3S,5S)-1-(2,2-diphenylethyl)-3-(3-(methylamino)propyl)-2-oxo-1,4-diazepan-5-yl)methyl)-2-naphthamide], the IC50 was under 1000 nM.
For `N=C(N)NCCC[C@@H]1N[C@H](CNC(=O)Cc2ccc3ccccc3c2)CCN(CC(c2ccccc2)c2ccccc2)C1=O` [Compound 110, N-(((3S,5S)-1-(2,2-diphenylethyl)-3-(3-guanidinopropyl)-2-oxo-1,4-diazepan-5-yl)methyl)-2-(naphthalen-2-yl)acetamide], the IC50 was under 1000 nM.
In the case of `N=C(N)NCCC[C@@H]1N[C@H](CNC(=O)C2CCc3ccccc3C2)CCN(CC(c2ccccc2)c2ccccc2)C1=O` (stereo partly drawn) [Compound 111, N-(((3S,5S)-1-(2,2-diphenylethyl)-3-(3-guanidinopropyl)-2-oxo-1,4-diazepan-5-yl)methyl)-1,2,3,4-tetrahydronaphthalene-2-carboxamide], the IC50 is reported as under 100 nM.
`N=C(N)NCCC[C@@H]1N[C@H](CNC(=O)c2cnc3ccccc3c2)CCN(CC(c2ccccc2)c2ccccc2)C1=O` [Compound 112, N-(((3S,5S)-1-(2,2-diphenylethyl)-3-(3-guanidinopropyl)-2-oxo-1,4-diazepan-5-yl)methyl)quinoline-3-carboxamide] was tested, and the IC50 was under 100 nM.
In the case of `N=C(N)NCCC[C@@H]1N[C@H](CNC(=O)c2cnc3ccccc3n2)CCN(CC(c2ccccc2)c2ccccc2)C1=O` [Compound 113, N-(((3S,5S)-1-(2,2-diphenylethyl)-3-(3-guanidinopropyl)-2-oxo-1,4-diazepan-5-yl)methyl)quinoxaline-2-carboxamide], the IC50 is reported as under 1000 nM.
`N=C(N)NCCC[C@@H]1N[C@H](CNC(=O)c2cc3ccccc3cn2)CCN(CC(c2ccccc2)c2ccccc2)C1=O` [Compound 114, N-(((3S,5S)-1-(2,2-diphenylethyl)-3-(3-guanidinopropyl)-2-oxo-1,4-diazepan-5-yl)methyl)isoquinoline-3-carboxamide] gave an IC50 of under 1000 nM.
`N=C(N)NCCC[C@@H]1N[C@H](CNC(=O)c2ccccc2)CCN(CC(c2ccccc2)c2ccccc2)C1=O` [Compound 115, N-(((3S,5S)-1-(2,2-diphenylethyl)-3-(3-guanidinopropyl)-2-oxo-1,4-diazepan-5-yl)methyl)benzamide] showed an IC50 of under 1000 nM.
`N=C(N)NCCC[C@@H]1N[C@H](CNC(=O)c2ccc3ccccc3n2)CCN(CC(c2ccccc2)c2ccccc2)C1=O` [Compound 116, N-(((3S,5S)-1-(2,2-diphenylethyl)-3-(3-guanidinopropyl)-2-oxo-1,4-diazepan-5-yl)methyl)quinoline-2-carboxamide] was tested, and the IC50 was under 1000 nM.
With `NCCCC[C@@H]1N[C@H](CNC(=O)c2ccc3ccccc3c2)CCN(Cc2cccc3ccccc23)C1=O` [Compound 117, N-(((3S,5S)-3-(4-aminobutyl)-1-(naphthalen-1-ylmethyl)-2-oxo-1,4-diazepan-5-yl)methyl)-2-naphthamide] the IC50 was under 1000 nM.
`NCCCC[C@@H]1N[C@H](CNC(=O)Cc2ccc3ccccc3c2)CCN(Cc2cccc3ccccc23)C1=O` [Compound 118, N-(((3S,5S)-3-(4-aminobutyl)-1-(naphthalen-1-ylmethyl)-2-oxo-1,4-diazepan-5-yl)methyl)-2-(naphthalen-2-yl)acetamide] was tested, and the IC50 was under 10000 nM.
With `NCCCC[C@@H]1N[C@H](CNC(=O)c2ccc3ccccc3c2)CCN(Cc2ccc3ccccc3c2)C1=O` [Compound 122, N-(((3S,5S)-3-(4-aminobutyl)-1-(naphthalen-2-ylmethyl)-2-oxo-1,4-diazepan-5-yl)methyl)-2-naphthamide] the IC50 was under 1000 nM.
In the case of `NCCCC[C@@H]1N[C@H](CNC(=O)Cc2ccc3ccccc3c2)CCN(Cc2ccc3ccccc3c2)C1=O` [Compound 123, N-(((3S,5S)-3-(4-aminobutyl)-1-(naphthalen-2-ylmethyl)-2-oxo-1,4-diazepan-5-yl)methyl)-2-(naphthalen-2-yl)acetamide], the IC50 is reported as under 10000 nM.
`NCCCC[C@@H]1N[C@H](CNC(=O)c2cccc3ccccc23)CCN(Cc2ccc3ccccc3c2)C1=O` [Compound 124, N-(((3S,5S)-3-(4-aminobutyl)-1-(naphthalen-2-ylmethyl)-2-oxo-1,4-diazepan-5-yl)methyl)-1-naphthamide] gave an IC50 of under 10000 nM.
